In publication PMC10684410 (Clinical Pharmacokinetics, 2023):

Assays:
[1] = Plasma paroxetine concentrations in the DDI study; type: in vivo, human (healthy subjects)
[2] = cited from earlier work
[3] = test system: TAAR1; details: in vitro receptor binding studies; result in words; cited from earlier work
[4] = 25 mg ulotaront + 20 mg QD paroxetine vs ulotaront alone, result in words

| SMILES | AUC ([1]; human, plasma, oral, 20 mg) [ng·h/mL] | Cmax ([1]; human, plasma, oral, 20 mg) [ng/mL] | mean plasma trough concentration at steady-state ([1]; paroxetine 20 mg once daily from Day 5, Day 11) [ng/mL] | metabolite abundance in humans ([2]; minor metabolite in humans) | effective half-life for the metabolite ([2]; ref unpublished data) | increase of SEP-363854 AUC∞ by coadministration of paroxetine (25 mg ulotaront + 20 mg QD paroxetine vs ulotaront alone) [%] | effect of paroxetine on SEP-363854 Cmax [4] | effect of paroxetine on SEP-363854 tmax [4] | effect of paroxetine on SEP-363854 to ulotaront AUClast ratio [4] | mean SEP-363854 to ulotaront AUClast ratio (with or without paroxetine coadministration) | binding to TAAR1 [3] |
| --- | --- | --- | --- | --- | --- | --- | --- | --- | --- | --- | --- |
| Fc1ccc([C@@H]2CCNC[C@H]2COc2ccc3c(c2)OCO3)cc1 [Paroxetine] | 647 | 37.3 | 19.3 | – | – | – | – | – | – | – | – |
| NCC1OCCc2ccsc21 (centres unmarked) [SEP-363854] | – | – | – | < 2 % of total | approximately 6 h | 32 | no effect | no effect | no effect | about 0.02 | does bind to TAAR1 |
